Molecular target: T1, Histone deacetylase 11 (Homo sapiens, UniProt Q96DB2)
T1 sequence (Q96DB2 whole entry): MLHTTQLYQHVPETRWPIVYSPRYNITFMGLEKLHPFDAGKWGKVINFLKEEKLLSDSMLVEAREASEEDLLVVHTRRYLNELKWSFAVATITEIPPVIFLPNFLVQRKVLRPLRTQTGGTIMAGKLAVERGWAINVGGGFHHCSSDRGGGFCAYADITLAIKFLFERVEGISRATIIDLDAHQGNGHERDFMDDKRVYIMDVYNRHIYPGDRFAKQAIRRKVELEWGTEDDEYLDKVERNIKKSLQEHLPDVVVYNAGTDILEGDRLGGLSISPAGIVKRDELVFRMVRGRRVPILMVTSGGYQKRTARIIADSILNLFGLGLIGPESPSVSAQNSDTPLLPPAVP
Test: Inhibition of His-tagged human HDAC11 expressed in Sf9 cells using Ac-Arg-Gly-Lys(Ac)-AMC as substrate by fluorometric assay

SMILES: O=C(/C=C/c1cn([C@H]2C[C@@H](CO)N(Cc3ccccc3)C2)nn1)NO
- IC50: 1.2 µM

Reference: ChEMBL document CHEMBL3792380, “A sub-milligram-synthesis protocol for in vitro screening of HDAC11 inhibitors” (Bioorg Med Chem Lett, 2016)
